# “And” between values parts separate entries of the source, which are not always exact repeats. Equal entries are not always repeated. Where two headings read alike, the source gives them in different places.
# Assay: Pharmacokinetic studies of certain compounds in female Balb/c mice (Example 5)
# Assay type: in vivo
# Conditions: for concentration at 0.5 hr / concentration at 1 hr / concentration at 2 hr / concentration at 4 hr: BALB/c
# Experimental: Pharmacokinetic studies were performed using Balb/c mice, 15-20 g, 6-9 weeks, female, N=9, purchased from Jihui Laboratory Animal Co. LTD. For compound I-29, Balb/c mice, 19-21 g, 9-11 weeks, female, N=9, were used. The mice were fasted overnight and fed at 4 h post dosing.
# Animals were dosed via oral gavage (PO) or tail vein injection (IV) with compound. Sampling occurred at 0.083, 0.25, 0.5, 1, 2, 4, 8, and 24 h post dose (8 time points). The animals were restrained manually at the designated time points. Approx. […] of blood was taken from the animals via facial vein for semi-serial bleeding into tubes with K2EDTA. Blood samples were put on ice and centrifuged at 4° C. (2000 g, 5 min) to obtain plasma within 15 min after sample collection. Plasma samples were stored in dry ice temporarily and at approximately −70° C. until analysis.
# For oral gavage, the compound was dosed as a suspension in 1% sodium carboxymethyl cellulose (CMC) and 0.2% Tween 80 in water. For 23.8 mg/kg and 30 mg/kg doses, 3 mg/mL was used; for 50 mg/kg doses, 5 mg/mL was used; and for 100 mg/kg doses, 10 mg/mL was used.
# For IV administration, the compound was dosed as a solution in 5% DMSO, 5% Solutol HS15 and 90% saline. For 1 mg/kg and 1.48 mg/kg doses, 0.2 mg/mL was used.
# Plasma samples were analyzed using LC-MS using a calibration curve of known concentrations.
# The results of these studies are summarized in Tables 11-21 below and in FIGS. 2-8. […] BQL=below quantifiable limit for compound in female Balb/c mouse plasma samples. NA=not available. PK parameters were estimated by non-compartmental model using WinNonlin 8.2. If the adjusted rsq (linear regression coefficient of the concentration value on the terminal phase) was less than 0.9, T1/2 might not have been accurately estimated. F value was determined by the following equation: • If AUClast/AUCINF>80%:
# F=(AUCINF-EX×DOSEIV)/(AUCINF-IV×DOSEEX)[…] • If AUClast/AUCINF<80% or AUCINF not available:
# F=(AUClast-EX×DOSEIV)/(AUClast-IV×DOSEEX)*1000
# [1] = mouse, plasma, I-2 PO 100 mg/kg
smiles,measurement,setting,value
CC(C)Cc1sc(Nc2ncc(-c3cccs3)cc2C(=O)O)nc1C1=CCCCC1 [Compound I-2],Plasma concentration Individual,"I-2 PO 30 mg/kg, 0.083 hr, 30 mg/kg",106 ng/mL and 211 ng/mL and 94.1 ng/mL
same,Plasma concentration Individual,"I-2 PO 30 mg/kg, 0.25 hr, 30 mg/kg",663 ng/mL and 622 ng/mL
same,Plasma concentration Individual,"I-2 PO 30 mg/kg, 0.5 hr, 30 mg/kg",1380 ng/mL and 1170 ng/mL
same,Plasma concentration Individual,"I-2 PO 30 mg/kg, 1 hr, 30 mg/kg",2110 ng/mL and 1590 ng/mL
same,Plasma concentration Individual,"I-2 PO 30 mg/kg, 2 hr, 30 mg/kg",2640 ng/mL and 2190 ng/mL
same,Plasma concentration Individual,"I-2 PO 30 mg/kg, 4 hr, 30 mg/kg",1600 ng/mL
same,Plasma concentration Individual,"I-2 PO 30 mg/kg, 8 hr, 30 mg/kg",233 ng/mL and 261 ng/mL
same,Plasma concentration Individual,"I-2 PO 30 mg/kg, 24 hr, 30 mg/kg",7.09 ng/mL and 5.63 ng/mL
same,Plasma concentration Individual,"I-2 PO 100 mg/kg, 0.083 hr, 100 mg/kg",406 ng/mL and 159 ng/mL and 182 ng/mL
same,Plasma concentration Individual,"I-2 PO 100 mg/kg, 0.25 hr, 100 mg/kg",1310 ng/mL and 2360 ng/mL and 885 ng/mL
same,Plasma concentration Individual,"I-2 PO 100 mg/kg, 0.5 hr, 100 mg/kg",3290 ng/mL and 2960 ng/mL
same,Plasma concentration Individual,"I-2 PO 100 mg/kg, 1 hr, 100 mg/kg",3010 ng/mL and 3120 ng/mL
same,Plasma concentration Individual,"I-2 PO 100 mg/kg, 2 hr, 100 mg/kg",4510 ng/mL and 3430 ng/mL
same,Plasma concentration Individual,"I-2 PO 100 mg/kg, 4 hr, 100 mg/kg",3380 ng/mL and 1660 ng/mL and 2310 ng/mL
same,Plasma concentration Individual,"I-2 PO 100 mg/kg, 8 hr, 100 mg/kg",914 ng/mL and 861 ng/mL
same,Plasma concentration Individual,"I-2 PO 100 mg/kg, 24 hr, 100 mg/kg",19.7 ng/mL and 18.8 ng/mL and 37.7 ng/mL
same,concentration at 0.5 hr,"female, mouse, plasma, po, 30 mg/kg, I-2 PO 30 mg/kg, 0.5 hr, read-out: Plasma concentration Individual",1160 ng/mL
same,concentration at 0.5 hr,"female, mouse, plasma, po, 30 mg/kg, I-2 PO 30 mg/kg, 0.5 hr, read-out: Plasma concentration Mean",1240 ng/mL
same,concentration at 1 hr,"female, mouse, plasma, po, 30 mg/kg, I-2 PO 30 mg/kg, 1 hr, read-out: Plasma concentration Individual",1700 ng/mL
same,concentration at 1 hr,"female, mouse, plasma, po, 30 mg/kg, I-2 PO 30 mg/kg, 1 hr, read-out: Plasma concentration Mean",1800 ng/mL
same,concentration at 2 hr,"female, mouse, plasma, po, 30 mg/kg, I-2 PO 30 mg/kg, 2 hr, read-out: Plasma concentration Individual",2150 ng/mL
same,concentration at 2 hr,"female, mouse, plasma, po, 30 mg/kg, I-2 PO 30 mg/kg, 2 hr, read-out: Plasma concentration Mean",2330 ng/mL
same,concentration at 4 hr,"female, mouse, plasma, po, 30 mg/kg, I-2 PO 30 mg/kg, 4 hr, read-out: Plasma concentration Individual",1340 ng/mL
same,concentration at 4 hr,"female, mouse, plasma, po, 30 mg/kg, I-2 PO 30 mg/kg, 4 hr, read-out: Plasma concentration Mean",1510 ng/mL
same,concentration at 0.083 h,"female, Balb/c, mouse, plasma, po, 30 mg/kg, I-2 PO 30 mg/kg, 0.083 hr, read-out: Plasma concentration Mean",137 ng/mL
same,concentration at 0.25 h,"female, Balb/c, mouse, plasma, po, 30 mg/kg, I-2 PO 30 mg/kg, 0.25 hr, read-out: Plasma concentration Individual",472 ng/mL
same,concentration at 0.25 h,"female, Balb/c, mouse, plasma, po, 30 mg/kg, I-2 PO 30 mg/kg, 0.25 hr, read-out: Plasma concentration Mean",586 ng/mL
same,concentration at 8 hr,"female, Balb/c, mouse, plasma, po, 30 mg/kg, I-2 PO 30 mg/kg, 8 hr, read-out: Plasma concentration Individual",244 ng/mL
same,concentration at 8 h,"female, Balb/c, mouse, plasma, po, 30 mg/kg, I-2 PO 30 mg/kg, 8 hr, read-out: Plasma concentration Mean",246 ng/mL
same,concentration at 24 h,"female, Balb/c, mouse, plasma, po, 30 mg/kg, I-2 PO 30 mg/kg, 24 hr, read-out: Plasma concentration Individual",4.28 ng/mL
same,concentration at 24 h,"female, Balb/c, mouse, plasma, po, 30 mg/kg, I-2 PO 30 mg/kg, 24 hr, read-out: Plasma concentration Mean",5.67 ng/mL
same,concentration at 0.083 h,"female, Balb/c, mouse, plasma, po, 100 mg/kg, I-2 PO 100 mg/kg, 0.083 hr, read-out: Plasma concentration Mean",249 ng/mL
same,concentration at 0.25 h,"female, Balb/c, mouse, plasma, po, 100 mg/kg, I-2 PO 100 mg/kg, 0.25 hr, read-out: Plasma concentration Mean",1520 ng/mL
same,concentration at 0.5 h,"female, Balb/c, mouse, plasma, po, 100 mg/kg, I-2 PO 100 mg/kg, 0.5 hr, read-out: Plasma concentration Individual",2800 ng/mL
same,concentration at 0.5 h,"female, Balb/c, mouse, plasma, po, 100 mg/kg, I-2 PO 100 mg/kg, 0.5 hr, read-out: Plasma concentration Mean",3020 ng/mL
same,concentration at 1 h,"female, Balb/c, mouse, plasma, po, 100 mg/kg, I-2 PO 100 mg/kg, 1 hr, read-out: Plasma concentration Individual",4550 ng/mL
same,concentration at 1 h,"female, Balb/c, mouse, plasma, po, 100 mg/kg, I-2 PO 100 mg/kg, 1 hr, read-out: Plasma concentration Mean",3560 ng/mL
same,concentration at 2 h,"female, Balb/c, mouse, plasma, po, 100 mg/kg, I-2 PO 100 mg/kg, 2 hr, read-out: Plasma concentration Individual",3810 ng/mL
same,concentration at 2 h,"female, Balb/c, mouse, plasma, po, 100 mg/kg, I-2 PO 100 mg/kg, 2 hr, read-out: Plasma concentration Mean",3920 ng/mL
same,concentration at 4 h,"female, Balb/c, mouse, plasma, po, 100 mg/kg, I-2 PO 100 mg/kg, 4 hr, read-out: Plasma concentration Mean",2450 ng/mL
same,concentration at 8 h,"female, Balb/c, mouse, plasma, po, 100 mg/kg, I-2 PO 100 mg/kg, 8 hr, read-out: Plasma concentration Individual",1080 ng/mL
same,concentration at 8 h,"female, Balb/c, mouse, plasma, po, 100 mg/kg, I-2 PO 100 mg/kg, 8 hr, read-out: Plasma concentration Mean",952 ng/mL
same,concentration at 24 h,"female, Balb/c, mouse, plasma, po, 100 mg/kg, I-2 PO 100 mg/kg, 24 hr, read-out: Plasma concentration Mean",25.4 ng/mL
same,AUC(0-inf),"mouse, plasma, I-2 PO 30 mg/kg",12500 ng·h/mL
same,AUC(0-t),"mouse, plasma, I-2 PO 30 mg/kg",12500 ng·h/mL
same,Cmax,"mouse, plasma, I-2 PO 30 mg/kg",2330 ng/mL
same,MRT inf,"mouse, plasma, I-2 PO 30 mg/kg",3.85 h
same,MRT last,"mouse, plasma, I-2 PO 30 mg/kg",3.81 h
same,Tmax,"mouse, plasma, I-2 PO 30 mg/kg",2 h
same,half-life,"mouse, plasma, I-2 PO 30 mg/kg",2.6 h
same,AUC(0-inf),[1],27200 ng·h/mL
same,AUC(0-t),[1],27100 ng·h/mL
same,Cmax,[1],3920 ng/mL
same,MRT inf,[1],4.73 h
same,MRT last,[1],4.63 h
same,Tmax,[1],2 h
same,half-life,[1],3.04 h

# Source: patent publication US20240208961A1, “EIF4E INHIBITORS AND USES THEREOF” (PIC Therapeutics, Inc., priority 2022, published 2024)
